Reference: paper PMC11784145, “Efficacy and in vitro pharmacological assessment of novel N-hydroxypyridinediones as hepatitis B virus ribonuclease H inhibitors” (Antimicrobial Agents and Chemotherapy, 2024)
Read-outs that look alike come from different tables or passages of the source.

Legend:
[1] = target: T1, human ribonuclease H1 (huRNase H1) (Homo sapiens, UniProt O60930); assay: Human RNase H1 inhibition, fluorescent biochemical assay
T1 construct: made in house; host or cells: Escherichia coli
T1 sequence (O60930 1-286): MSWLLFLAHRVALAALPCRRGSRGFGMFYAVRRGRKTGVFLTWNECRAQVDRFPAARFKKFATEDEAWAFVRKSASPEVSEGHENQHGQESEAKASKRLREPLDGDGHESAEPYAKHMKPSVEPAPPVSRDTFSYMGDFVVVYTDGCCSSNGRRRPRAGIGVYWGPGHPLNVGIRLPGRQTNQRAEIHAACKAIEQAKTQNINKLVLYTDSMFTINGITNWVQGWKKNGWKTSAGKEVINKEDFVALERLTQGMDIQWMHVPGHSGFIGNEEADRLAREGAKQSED

[2] = test system: HBV replication (HBV plus-polarity DNA strand); assay: HBV replication inhibition, strand preferential qPCR in hepDES19 cells; type: cell-based, hepatitis B virus; settings: for EC50: 72 h exposure
Method: HBV replication inhibition was measured in hepDES19 cells following 72 h compound exposure without compound replenishment. EC50 values were determined by HBV plus-polarity strand suppression using a strand preferential qPCR assay, as described previously ([28]). Three or more replicate values were obtained on different days.

[3] = Parallel artificial membrane permeability assay (PAMPA); type: in vitro ADME
Method: Compound Papp values were determined by normalizing the experimental compound absorbance to the compounds’ absorbances at equilibrium, membrane porosity, buffer volume, and time (s). Two or more replicate assays were obtained on separate days for each pH.

plasma proteins = assay: Plasma protein binding, rapid equilibrium dialysis; type: in vitro ADME, bovine; settings: 10 µM compound, DMEM-F12 with 10% FBS (0.25 mg/mL BSA), 4 h, 37°C
Method: Plasma protein binding was performed using the Pierce rapid equilibrium dialysis device (Thermo Fisher) per the manufacturer’s instructions, as described ([27]). Briefly, the sample wells contained DMEM-F12 supplemented with 10% FBS spiked with 10 µM compound, and the buffer wells contained phosphate-buffered saline (PBS). The plate was incubated for 4 h at 37°C with shaking, after which 50 µL was retrieved from the buffer and sample wells and added to ice-cold acetonitrile and the internal standard described above. Samples were matrix-matched with PBS supplemented with 10% FBS or PBS alone, respectively, and centrifuged at 4,000 × g for 5 min to pellet plasma proteins. The supernatants were analyzed by LCMS/MS and percent compound bound was determined, as described previously ([27]).

HepDES19 cells = settings: read-out: HepDES19 CC50; 72 h, MTS; highest concentration tested 100 µM; mean ± SD
MDCK-MDR1 cells = assay: MDCK-MDR1 permeability assay; type: in vitro ADME; settings: 10 µM compound, 2 h; for Efflux Ratio (Papp B-A/A-B): MDCK-MDR1 cells, actively effluxed if >2
Method: MDCK-MDR1 cells were seeded on 96-well, high protein binding immobilon-P membrane plates (Millipore Sigma) at 2.4 × 10^4 cells per well for 4 days. Media were then decanted, and the cells were equilibrated with Hanks balanced salt solution (HBSS) supplemented with 10 mM CaCl2 and 1 mM MgCl2 for 1 h. Compound (10 µM) was then added to the apical side to assess active transport and to the basolateral side to assess active efflux. The cells were incubated with compound for 2 h with shaking at 37°C. Samples (50 µL) were retrieved from the recipient wells and mixed with 150 µL acetonitrile (ACN) and internal standard (1:1 of 200 ng/mL chloridazon:enalapril). Samples were pelleted at 4,000 × g and the supernatant was analyzed by liquid-chromatography/tandem mass spectrometry (LCMS/MS) analyses. […]. Active efflux was determined by Papp B/A/Papp A/B.
Tight junction formation was assessed by lucifer yellow permeation immediately following sample retrieval. Briefly, lucifer yellow (10 µM) was added to the apical wells and HBSS was added to the basolateral wells for 1 h with shaking at 37°C, after which sample was collected from the basolateral side and read on a Biotek Synergy HTX multi-mode plate reader with 485/20 excitation and 520/20 emission filters defined by the Center Wavelength/band-pass values. The percent lucifer yellow fluorescence was determined by subtracting the HBSS relative fluorescent units (RFU) from the sample RFU and normalizing to the lucifer yellow positive control RFU. Lucifer yellow permeation was determined to be acceptable if ≤3%.

[4] = Solubility limit, turbidimetric assay; type: physicochemical; settings: upper limit 200 µM
Method: Solubility limits were determined by a turbidimetric assay, as described ([27]), with the solubility limit being defined as the compound concentration where light scattering began to rise. Two or more replicate assays were performed for each compound at each pH on different days.

[5] = HBV plus-polarity strand suppression, highest concentration tested 100 µM, mean ± SD, read-out: HepDES19 EC50
[6] = read-out: EC50 against HBV replication
[7] = pH 5 (fed simulated intestinal fluid)
[8] = pH 6.5 (fasted simulated intestinal fluid)

SMILES | Selectivity of HBV replication inhibition over huRNase H1 (huRNase H1 IC50 versus HBV EC50) [1] | HepDES19 SI (CC50/EC50) [2] | EC50 [2, 5] | EC50 [2, 6] | Avg Papp (PAMPA) ([3]; FeSSIF pH 5) | Interpretation (PAMPA Papp) ([3]; FeSSIF pH 5) | Papp 1 (PAMPA) ([3]; FeSSIF pH 5, replicate 1) | Papp 2 (PAMPA) ([3]; FeSSIF pH 5, replicate 2) | Avg Papp (PAMPA) ([3]; pH 7.4) | PAMPA apparent permeability (Papp) category ([3]; pH 7.4) | Papp 1 (PAMPA) ([3]; pH 7.4, replicate 1) | Papp 2 (PAMPA) ([3]; pH 7.4, replicate 2) | Percent bound (plasma proteins) | CC50 (HepDES19 cells) | MDCK-MDR1 Papp category, apical to basolateral (A-B) (MDCK-MDR1 cells) | MDCK-MDR1 Papp category, basolateral to apical (B-A) (MDCK-MDR1 cells) | Efflux Ratio (Papp B-A/A-B) (MDCK-MDR1 cells) | Average Sol (solubility limit) [4, 7] | Sol 1 (solubility limit) ([4]; pH 5, replicate 1) | Sol 2 (solubility limit) ([4]; pH 5, replicate 2) | further results
CC(=NOCc1cccc(F)c1)c1c(C)cc(=O)n(O)c1O [Compound 1618] | at least 10 fold | 1,071 | 61 ± 10 nM | < 400 nM | 1.64e-05 cm/s | H (H: Papp > 1*10-6) | 1.54e-05 cm/s | 1.74e-05 cm/s | 4.89e-07 cm/s | low (low (<1 × 10^−6 cm/s)) | 3.95e-07 cm/s | 5.82e-07 cm/s | 93.5 ± 0.129% | 73.9 ± 28.6 µM | low (low (<1*10^−6 cm/s)) | low (low (<1*10^−6 cm/s)) | 0.84 | > 200 µM | > 200 µM | > 200 µM | Average Sol (solubility limit) [4, 8]: > 200 µM; Sol 1 (solubility limit) ([4]; pH 6.5, replicate 1): > 200 µM; Sol 2 (solubility limit) ([4]; pH 6.5, replicate 2): > 200 µM; Sol 3 (solubility limit) ([4]; pH 6.5, replicate 3): > 200 µM; Average Sol (solubility limit) ([4]; pH 7.4 (DMEM-F12 with 10% FBS)): > 200 µM; Sol 1 (solubility limit) ([4]; pH 7.4, replicate 1): > 200 µM; Sol 2 (solubility limit) ([4]; pH 7.4, replicate 2): > 200 µM
CC(=NOCc1ccc(F)c(F)c1)c1c(C)cc(=O)n(O)c1O [Compound 1617] | at least 10 fold | 157 | 350 ± 193 nM | < 400 nM | 1.51e-05 cm/s | H (H: Papp > 1*10-6) | 4.04e-06 cm/s | 2.61e-05 cm/s | 9.5e-07 cm/s | low (low (<1 × 10^−6 cm/s)) | 1.46e-06 cm/s | 4.78e-07 cm/s | 100 ± 0.019% | 72.9 ± 37.1 µM | low (low (<1*10^−6 cm/s)) | low (low (<1*10^−6 cm/s)) | 1.01 | > 200 µM | > 200 µM | > 200 µM | Papp 3 (PAMPA) ([3]; pH 7.4, replicate 3): 9.11e-07 cm/s; Average Sol (solubility limit) [4, 8]: > 200 µM; Sol 1 (solubility limit) ([4]; pH 6.5, replicate 1): > 200 µM; Sol 2 (solubility limit) ([4]; pH 6.5, replicate 2): > 200 µM; Average Sol (solubility limit) ([4]; pH 7.4 (DMEM-F12 with 10% FBS)): > 200 µM; Sol 1 (solubility limit) ([4]; pH 7.4, replicate 1): > 200 µM; Sol 2 (solubility limit) ([4]; pH 7.4, replicate 2): > 200 µM
